The subject of assay [1] is rats with TNBS-induced enteritis. Kind of assay: Enteritis induced in rats with trinitrobenzol sulfonic acid (TNBS), oral ectoine. It is filed as in vivo. Here is the method:
For the purpose of closer investigation an animal model involving rats was prepared to induce enteritis by administering 10 mg/kg of trinitrobenzol sulfonic acid in 50% ethanol using a light ether anesthesia. Lesions developed which were examined macroscopically four days later. Ectoine was administered orally in various doses (30 to 300 mg/kg) for one week before the rats were given TNBS and four days thereafter.

For assay [2], the system named is Small intestine segments of rats. Kind of assay: Cold ischemic storage (18 h, 4° C.) of rat small intestine segments in POLYSOL with or without ectoine, then in vitro reperfusion. Particulars: for LDH liberation: ectoine (5 mg/kg) added to POLYSOL, 18 h at 4° C. As for the experimental part: Small intestine segments of rats were removed under standard conditions and immediately irrigated with a cold common salt solution and subsequently with a POLYSOL solution (supplied by Doorzand Medical Innovations, Amsterdam/NL). The small intestine segments removed were kept ischemically in 50 ml of nutrient solution at 4° C. for 18 hours; in half of these cases ectoine (5 mg/kg) was added to the POLYSOL solution. Following this storage time at 4° C. reperfusion of the small intestine segments took place in vitro at 37° C. using a modified KHB medium (5% Dextran 78, 0.95% KHB, 0.37 g/L CaCl2, 2 g/L glucose, 0.6 g/L dexamethasone, 70 mg/L atropine and 0.21% sodium bicarbonate). For oxygen supply purposes a mixture of 95% O2 and 5% CO2 was used. The partial pressure of the oxygen was constantly kept at more than 500 mm/hg. When reperfusion had been completed all tissue samples were deep-frozen at −80° C. in liquid nitrogen and examined to ascertain their condition, the lactate dehydrogenase (LDH) liberation and nitrite liberation as a measure of NO. Generally speaking, the formation of NOx is an indicator for (oxidative) stress to which a tissue sample is subjected.

“Also recorded” adds a separate entry of the source.

For the compound `CC1=N[C@H](C(=O)O)CCN1` [ectoine, (4S)-2-methyl-1,4,5,6-tetrahydropyrimidine-4-carboxylic acid], the “extent of the lesions (macroscopic examination)” value in assay [1] (TNBS 10 mg/kg in 50% ethanol, ectoine oral 30 to 300 mg/kg for one week before TNBS and four days thereafter, lesions examined four days later) is “capable of alleviating the extent of the lesions”. Moreover, the “histopathological examination of the large intestine” value in assay [1] (TNBS enteritis) was “protective effect of ectoine could be confirmed”. In assay [1] (TNBS enteritis, oral ectoine), the “glutathione level in the large intestine” value is recorded as “caused the glutathione level in the large intestine to go down” and the myeloperoxidase activity result is recorded as “prevented changes of the myeloperoxidase activity”. The “level of mediators (IKAM-1, DNFα, IL-1β, IL-10, LTB4, PGE2)” value in assay [1] (in the blood and in the tissue of the large intestine, TNBS enteritis) is reported as “prevented changes of the level of various mediators”. For the same compound, the “dose giving the maximum effect on lesions” value in assay [1] (oral, doses of 30 to 300 mg/kg tested) was 100 mg/kg. For the same compound, in assay [1] (sulfasalazine 300 mg/kg as reference, TNBS enteritis), the “effect compared with reference active agent sulfasalazine” value is recorded as “comparable to that of sulfasalazine”. In assay [2] (after 15 min reperfusion), the LDH liberation is listed as 8.8+/−3.42 U/I. Besides, the LDH liberation in assay [2] (after 30 min reperfusion) is given as 25.4+/−8.2 U/I. In assay [2] (ectoine-doped POLYSOL samples after reperfusion), the “NOx− formation” value stood at 0.325 ± 1.05 mmol/L. For the same compound, the “condition of the microvilli (microscopic examination)” value in assay [2] (tissue samples after 30-minute reperfusion, compared with samples in POLYSOL only) is given as “much better condition; also recorded: considerably improved condition of the microvilli”.

Source of the values: patent publication US20160106747A1, “TREATING POSTOPERATIVE MECHANICAL STRESS WITH AN ECTOINE” (Bitop AG, priority 2008, published 2016).
